From the NIST ThermoML archive (doi:10.1016/j.jct.2006.03.008)
Values joined by “and” are separate entries in the source; they are usually repeats but may differ in a detail not shown here. Equal entries are not always repeated.

Settings: for vapor or sublimation pressure: Closed cell (Static) method; for mass density: Fluid (supercritical or subcritical phases), Bellows volumetry

CC(C)C [2-methylpropane]
Settings	Critical pressure [kPa]	Critical temperature [K]	mass density	vapor or sublimation pressure
310 K, Liquid	–	–	–	489.5 kPa [middle of 6 runs]
405 K, 3464.7 kPa	–	–	185 kg/m3	–
405 K, 3467.3 kPa	–	–	199.9 kg/m3 and 200 kg/m3	–
405 K, 3468 kPa	–	–	200 kg/m3	–
405 K, 3468.4 kPa	–	–	200 kg/m3	–
405 K, 3469.9 kPa	–	–	264.9 kg/m3	–
405 K, Liquid	–	–	–	3468.8 kPa [middle of 6 runs]
406 K, 3523.7 kPa	–	–	184.9 kg/m3	–
406 K, 3525.7 kPa	–	–	199.9 kg/m3	–
406 K, 3528.1 kPa	–	–	264.9 kg/m3	–
406 K, Liquid	–	–	–	3527 kPa [middle of 6 runs]
407 K, 3582.1 kPa	–	–	185.4 kg/m3	–
407 K, 3585 kPa	–	–	200.3 kg/m3	–
407 K, Liquid	–	–	–	3585.5 kPa [middle of 7 runs]
407.5 K, 3613.8 kPa	–	–	185 kg/m3	–
407.5 K, 3617.5 kPa	–	–	199.9 kg/m3	–
407.5 K, 3617.7 kPa	–	–	200.4 kg/m3	–
407.5 K, 3620.6 kPa	–	–	265 kg/m3	–
407.5 K, Liquid	–	–	–	3619 kPa [middle of 6 runs]
407.89 K, 3632.3 kPa	–	–	184.9 kg/m3	–
407.89 K, 3637.6 kPa	–	–	200.1 kg/m3	–
407.89 K, 3640.5 kPa	–	–	240 kg/m3	–
407.89 K, 3640.6 kPa	–	–	250 kg/m3	–
407.89 K, 3640.8 kPa	–	–	250.2 kg/m3	–
407.89 K, 3640.9 kPa	–	–	241.4 kg/m3	–
407.89 K, 3641.3 kPa	–	–	250.5 kg/m3	–
407.89 K, 3644.5 kPa	–	–	263.7 kg/m3	–
407.89 K, 3644.6 kPa	–	–	264.9 kg/m3	–
408 K, 3635.8 kPa	–	–	184.1 kg/m3	–
408 K, 3638.1 kPa	–	–	184.9 kg/m3	–
408 K, 3643.7 kPa	–	–	200 kg/m3	–
408 K, 3644.2 kPa	–	–	200.4 kg/m3	–
408 K, 3645.6 kPa	–	–	220 kg/m3	–
408 K, 3646.4 kPa	–	–	227.5 kg/m3	–
408 K, 3646.6 kPa	–	–	240 kg/m3	–
408 K, 3646.8 kPa	–	–	220.1 kg/m3	–
408 K, 3647.4 kPa	–	–	249.9 kg/m3	–
408 K, 3652.4 kPa	–	–	265.5 kg/m3	–
409 K, 3692.1 kPa	–	–	184.7 kg/m3	–
409 K, 3692.8 kPa	–	–	184.9 kg/m3	–
409 K, 3702.2 kPa	–	–	200 kg/m3	–
409 K, 3702.8 kPa	–	–	200.4 kg/m3	–
409 K, 3708.3 kPa	–	–	219.8 kg/m3	–
409 K, 3708.5 kPa	–	–	219.9 kg/m3	–
409 K, 3708.9 kPa	–	–	220.4 kg/m3	–
409 K, 3709.7 kPa	–	–	224.2 kg/m3	–
409 K, 3710.5 kPa	–	–	227.4 kg/m3	–
409 K, 3713.6 kPa	–	–	239.9 kg/m3	–
409 K, 3717.7 kPa	–	–	250 kg/m3	–
409 K, 3718.4 kPa	–	–	250.4 kg/m3	–
409 K, 3729 kPa	–	–	265 kg/m3	–
410 K, 3745.3 kPa	–	–	185 kg/m3	–
410 K, 3757.5 kPa	–	–	200 kg/m3	–
410 K, 3758.2 kPa	–	–	200 kg/m3	–
410 K, 3764.3 kPa	–	–	210 kg/m3	–
410 K, 3769.4 kPa	–	–	220 kg/m3	–
410 K, 3772.2 kPa	–	–	227.4 kg/m3	–
410 K, 3772.5 kPa	–	–	228.1 kg/m3	–
410 K, 3779.4 kPa	–	–	240 kg/m3	–
410 K, 3785.9 kPa	–	–	250 kg/m3	–
410 K, 3786.3 kPa	–	–	250.4 kg/m3	–
410 K, 3802.3 kPa	–	–	265 kg/m3	–
410 K, 3802.8 kPa	–	–	265.2 kg/m3	–
Liquid, Direct measurement	3639	–	–	–
Liquid, Visual observation in an unstirred cell	–	407.88	–	–
